Measured values published in US11561227B2, “Anti-mitochondrial inhibitors for oncogenic Ras and Myc” (LUNELLA BIOTECH, INC., priority 2017, dated 2023).

Test system: MCF7 cells
Experiment: Mammosphere formation in MCF7 cells (rotenone-induced oxidative stress)
Assay type: cell-based, human
Description: Investigation of the mechanism of tumorigenesis may be conducted by transduction of MCF7 cells with c-Myc, H-Ras, or both, and then subjecting the cell lines to phenotypic characterization, such as mammosphere formation. For the mammosphere formation assay inventors employed, a single suspension of MCF7 cells was prepared using enzymatic (lx Trypsin-EDTA, Sigma Aldrich) and manual disaggregation with a 25-gauge needle. Cells were plated at a density of 500 cells/cm^2 in a mammosphere medium (DMEM-F12/B27/20-ng/mlEGF/PenStrep) in non-adherent conditions, in culture dishes coated with 2-hydroxyethylmethacrylate (poly-HEMA, Sigma). Cells were grown for 5 days and maintained in a humidified incubator at 37° C. at an atmospheric pressure in 5% (v/v) carbon dioxide/air. After 5 days in culture, spheres >50 μm were counted using an eye-piece graticule, and the percentage of cells plated which formed spheres was calculated and is referred to as percent mammosphere formation, normalized to vehicle-alone treated controls. Mammosphere assays were performed in triplicate and repeated three times independently.
The inventors hypothesized that c-Myc induces “stemness” of CSCs in part by driving and managing the onset of mitochondrial oxidative stress. To test this hypothesis, inventors used a pharmacological approach to stimulate oxidative stress. Rotenone is a naturally occurring isoflavone that behaves as an inhibitor of complex I and strongly induces mitochondrial oxidative stress. During rotenone treatment, mitochondrial complexes I and III are the major sites of electron leakage, resulting in increased superoxide production. The inventors treated MCF7 cells with increasing concentrations of Rotenone.
To further validate that the effects of low-dose Rotenone were due to oxidative stress, the inventors tested the effects of a mitochondrial-specific antioxidant Mito-tempo. Mito-tempo functions as a reactive oxygen species (ROS) scavenger by targeting superoxide anions generated in mitochondria.

| SMILES | effect on rotenone-stimulated mammosphere formation (MCF7 mammospheres pretreated with rotenone, FIG. 6) | effect on mammosphere formation (higher dose Rotenone, MCF7 cells, FIG. 5) | stimulation of mammosphere formation (low-dose Rotenone, MCF7 cells, FIG. 5) [fold] |
| --- | --- | --- | --- |
| CC1(C)CC(NC(=O)C[P+](c2ccccc2)(c2ccccc2)c2ccccc2)CC(C)(C)N1[O] [Mito-tempo] | inhibited the stimulatory effects of rotenone | – | – |
| C=C(C)[C@H]1Cc2c(ccc3c2O[C@@H]2COc4cc(OC)c(OC)cc4[C@@H]2C3=O)O1 [Rotenone] | – | inhibited mammosphere formation | 1.6 to 1.8 |
